According to ChEMBL document CHEMBL1201862, “PubChem BioAssay data set” (2004):
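How tested: cells in 96-well plates exposed to compound for 48 hours at five concentrations. GI50 is the concentration that inhibits growth by half.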 The source made the active and inactive calls. No stated cut-off is given here; in the data, active = GI50 up to about 1.1 µM and inactive = higher.

Tests used:
Test in all cases: NCI anticancer screen, dose series, 48 h
IGROV-1 = test system: IGROV-1
SNB-75 = test system: SNB-75
MDA-MB-231 = test system: MDA-MB-231
A498 = test system: A498
SK-MEL-28 = test system: SK-MEL-28
HCC 2998 = test system: HCC 2998
UO-31 = test system: UO-31
SF-295 = test system: SF-295
TK-10 = test system: TK-10
DU-145 = test system: DU-145
SW-620 = test system: SW-620
SN12C = test system: SN12C
OVCAR-8 = test system: OVCAR-8
HT-29 = test system: HT-29
SF-539 = test system: SF-539
LOX IMVI = test system: LOX IMVI
NCI-H23 = test system: NCI-H23
ACHN = test system: ACHN
OVCAR-4 = test system: OVCAR-4
HCT-15 = test system: HCT-15
K562 = test system: K562
NCI-H460 = test system: NCI-H460
M14 = test system: M14
HOP-92 = test system: HOP-92
NCI-H226 = test system: NCI-H226
PC-3 = test system: PC-3
HL-60 = test system: HL-60
EKVX = test system: EKVX
RXF 393 = test system: RXF 393
UACC-257 = test system: UACC-257
Malme-3M = test system: Malme-3M
A549 = test system: A549
SNB-19 = test system: SNB-19
MCF7 = test system: MCF7
BT-549 = test system: BT-549
U-251 = test system: U-251
NCI-H522 = test system: NCI-H522
SF-268 = test system: SF-268
CCRF-CEM = test system: CCRF-CEM
OVCAR-3 = test system: OVCAR-3
HCT-116 = test system: HCT-116
Hs-578T = test system: Hs-578T
786-0 = test system: 786-0
RPMI-8226 = test system: RPMI-8226
HOP-62 = test system: HOP-62
SR = test system: SR
T47D = test system: T47D
MOLT-4 = test system: MOLT-4
SK-MEL-5 = test system: SK-MEL-5
CAKI-1 = test system: CAKI-1
OVCAR-5 = test system: OVCAR-5
KM12 = test system: KM12
NCI/ADR-RES = test system: NCI/ADR-RES
COLO 205 = test system: COLO 205
MDA-N = test system: MDA-N
MDA-MB-435 = test system: MDA-MB-435

Measured: GI50

CC(=O)Oc1ccc2c(-c3ccccc3)c(Oc3ccc(Cl)cc3)c(=O)oc2c1
3.16 µM: HCT-15
inactive: IGROV-1 15.9 µM | SNB-75 7.45 µM | MDA-MB-231 18.7 µM | A498 17 µM | SK-MEL-28 17.7 µM | HCC 2998 7.55 µM | UO-31 14.8 µM | SF-295 17.9 µM | TK-10 13.5 µM | DU-145 14.4 µM | SW-620 20.3 µM | SN12C 24.1 µM | OVCAR-8 18.5 µM | HT-29 20.8 µM | SF-539 16.4 µM | LOX IMVI 20.6 µM | NCI-H23 18.7 µM | ACHN 16.9 µM | OVCAR-4 15.2 µM | K562 14.8 µM | NCI-H460 14.7 µM | M14 19.8 µM | HOP-92 10.4 µM | NCI-H226 17.3 µM | PC-3 23.1 µM | HL-60 42.3 µM | EKVX 15.6 µM | RXF 393 18 µM | UACC-257 21.3 µM | Malme-3M 15.6 µM | A549 13.7 µM | SNB-19 14.4 µM | MCF7 20.7 µM | BT-549 18.8 µM | U-251 4.19 µM | NCI-H522 2.82 µM | SF-268 6.17 µM | CCRF-CEM 15.4 µM | OVCAR-3 14.5 µM | HCT-116 14.9 µM | Hs-578T 20.1 µM | 786-0 16.4 µM | RPMI-8226 47.1 µM | HOP-62 18.3 µM | SR 28.8 µM | T47D 6.21 µM | MOLT-4 18.1 µM | SK-MEL-5 18 µM | CAKI-1 18.3 µM | OVCAR-5 17.9 µM | KM12 14.4 µM

CCNC(=O)c1c(O)nc2ccccc2c1O
29 µM: HCT-15
inactive: IGROV-1 39.4 µM | SNB-75 > 100 µM | MDA-MB-231 67.5 µM | A498 > 100 µM | SK-MEL-28 > 100 µM | HCC 2998 > 100 µM | UO-31 73.5 µM | SF-295 80.9 µM | TK-10 50.6 µM | DU-145 80.9 µM | SW-620 43.1 µM | SN12C 67.6 µM | OVCAR-8 > 100 µM | HT-29 46.2 µM | SF-539 > 100 µM | LOX IMVI 51.5 µM | NCI-H23 > 100 µM | ACHN 40.5 µM | OVCAR-4 70.6 µM | K562 39.8 µM | NCI-H460 34.9 µM | HOP-92 75.3 µM | NCI-H226 > 100 µM | PC-3 49.9 µM | HL-60 35.6 µM | EKVX 32.3 µM | RXF 393 22.1 µM | UACC-257 > 100 µM | Malme-3M > 100 µM | A549 55.6 µM | SNB-19 83.9 µM | MCF7 51.8 µM | BT-549 78.2 µM | U-251 29.5 µM | NCI/ADR-RES > 100 µM | COLO 205 56.9 µM | NCI-H522 69.2 µM | SF-268 63.4 µM | CCRF-CEM 52.2 µM | OVCAR-3 61.9 µM | HCT-116 51.1 µM | Hs-578T 40.5 µM | 786-0 67.3 µM | MDA-N 84.9 µM | RPMI-8226 17.6 µM | HOP-62 64.9 µM | SR 25.5 µM | MOLT-4 42 µM | SK-MEL-5 43.5 µM | MDA-MB-435 59.7 µM | CAKI-1 55.5 µM | OVCAR-5 42.4 µM | KM12 97.7 µM
